Reference: patent US20140274782A1, “AFFINITY REAGENTS AND METHODS FOR DETECTION, PURIFICATION, AND PROTEOMIC ANALYSIS OF METHYLATED PROTEINS” (The Board of Trustees of the Leland Stanford Junior …, priority 2013, published 2014)

Columns and labels:
3×MBT domain of L3MBTL1 [1] = experiment: SILAC proteomic pull-down 3×MBT vs 3×MBTD355N from 293T nuclear extract, LC-MS/MS; type: binding, human; conditions: SILAC ratio, 293T nuclear extract pull-down; * = protein identified in only one labeling experiment
Method: Protein pull-downs were performed as described above using 600 μg of nuclear extract prepared with isotopic labels as indicated. After eluting with glutathione, 3×MBT domain was removed by dialysis into high salt and rebinding to GSH-sepharose. Bound proteins were separated by SDS-PAGE and analyzed by in-gel tryptic digest followed by LC-MS/MS. Peptides were identified using MaxQuant version 1.2.2.5 (Cox and Mann (2008) Nat. Biotechnol. 26, 1367-1372) and candidate methylated peptides were verified by manual inspection.
For stable isotope labeling by amino acids in cell culture (SILAC) experiments HEK 293T cells were grown for at least six doublings in DMEM for SILAC supplemented with 10% dialyzed fetal bovine serum (FBS), 230 mg/L L-proline and either 100 mg/L each of L-lysine and L-arginine (“light” medium), D4-L-lysine and ^13C6-L-arginine (“medium” media), or ^13C6^15N2-L-lysine and ^13C6^15N4-L-arginine (Thermo Scientific). Heavy methyl labeling used DMEM without L-Methionine or L-Cysteine supplemented with D3^13C-L-Methionine (Sigma), L-Cysteine (Sigma) and 10% dialyzed FBS.
600 μg of nuclear extract was incubated overnight rotating at 4° C. with 20 μl packed 3×MBT or 3×MBTD355N beads in a total volume of 250 μL with binding buffer. Supernatant was removed and saved for use as a loading control. Beads were washed 4×5 minutes with 0.5 mL binding buffer. Protein was eluted by incubating in 20 μL elution buffer (10 mg/mL glutathione in 50 mM Tris pH 8.0) rotating at 4° C. for four hours. Elutions from 3×MBT and 3×MBTD355N were combined and dialyzed overnight at 4° C. against 10,000× volume of dissociation buffer (50 mM Tris pH 7.5, 750 mM NaCl) in a 0.1 mL Slide-A-Lyzer MINI Dialysis Device with 3.5K molecular weight cutoff (Thermo Scientific). 80 μL of GSH-Sepharose was prepared by washing briefly three times with 0.5 mL binding buffer. Dialyzed proteins were added to the GSH-Sepharose and incubated 4 hours rotating at 4° C. to deplete the GST-fusion domains. Supernatant was transferred to a fresh 1.5 mL tube. Proteins were separated by SDS-PAGE on a 10% polyacrylamide gel and stained using SilverQuest Silver Staining Kit (Life Technologies). Lanes were excised, residual 3×MBT band was removed, and gel was diced into 0.5 mm cubes. Gel pieces were destained and processed by in-gel digestion (Carlson et al. (2011) Science Signaling 4) with sequencing grade trypsin (Promega) and the peptide sample was dried completely in a vacuum centrifuge. To prepare a loading control, 2 μL each of light and heavy nuclear extract were combined, 6 μL of 8M urea was added, proteins were denatured by adding 2 μL of 100 mM dithiothreitol in digest buffer (50 mM ammonium bicarbonate) and heating to 60° C. for 1 hour, cysteine was alkylated by adding 2.2 μL 100 mg/mL iodoacetamide in digest buffer and incubating 1 hour at room temperature in darkness, and proteins were digested by adding 80 μL trypsin (Promega) at 12.5 ng/μL in digest buffer and incubating overnight at room temperature in darkness. Digestion was stopped by adding 10 μL of 10% formic acid.
Each experiment consisted of two sets of pull-downs: “forward” labeling with 3×MBT incubated with light nuclear extract and 3×MBTD355N with medium extract, and a second “reverse” labeling experiment with the label conditions swapped. Proteins were included in the results if they were quantified in both labeling directions. To determine reproducibility the entire experiment including the label swap was duplicated using independent protein preparations and a mass spectrometer at another institution.
For 3×MBT pull-down experiment #1 the gel lane was processed and peptides were loaded off-line onto a first dimension trap column (Waters Xbridge, C18, 10 μm particle size, 100 Å pore size, 5 cm packing length, 150 μm column i.d.). […]

3×MBT domain of L3MBTL1 [2] = experiment: Triple SILAC pull-down, 3xMBT/3xMBTD355N ratio (cytoplasmic, nuclear and chromatin fractions of 293T cells); type: binding, human; conditions: SILAC ratio; for 3xMBT/D355N UNC Heavy / 3xMBT/D355N UNC Light: pull-down 3xMBT vs 3xMBTD355N; for 3xMBT/D355N UNC Heavy: experiment with UNC0638 in heavy SILAC media; for 3xMBT/D355N UNC Light: experiment with UNC0638 in light SILAC media; for Protein Ratios 3xMBT/D355N: pull-down by 3xMBT vs 3xMBTD355N, 293T cells;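 on all read-outs here: proteins quantified with MaxQuant, requiring at least two unique peptides and quantification in both label directions, normalized to the mean of proteins from a digested loading control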

Substance	Protein Ratio 3xMBT/D355N (3×MBT domain of L3MBTL1 [1])	3xMBT/D355N UNC Heavy (3×MBT domain of L3MBTL1 [2]) [log base 2]	3xMBT/D355N UNC Light (3×MBT domain of L3MBTL1 [2]) [log base 2]	Protein Ratios 3xMBT/D355N (3×MBT domain of L3MBTL1 [2])
DNA ligase 1	10.7	3.18	1.96	5.9
MCM7: protein with methylated lysine identified in 3xMBT pull-down	6.7	2.23	2.52	
MSH6: protein with methylated lysine identified in 3xMBT pull-down	1.2	2.51	2.41	
Protein Wiz	5.3	0.93	2.02	2.7
RBM25: protein with methylated lysine identified in 3xMBT pull-down	7.7	2.41	2.28	
SSRP1: protein with methylated lysine identified in 3xMBT pull-down	14.6	4.47	4.11	
